Among the data in US9029391B2 (priority 2011, dated 2015) are IC50 values, retold here.

Structures can show the parent of a compound that is named as a salt.

For this assay, the system named is HIV. The experiment in a line: MT4 Assay (anti-HIV activity). To be noted: Human immunodeficiency virus 1, 96 h, read-out: HIV MT4 Assay IC50, HTLV-1 transformed cell line MT-4, cell titer glo, 10 point dose response curve. The class given is cell-based. The essentials:
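IC50 values were fitted to 10-point dose-response series (3-4-fold dilutions, range >1000-fold), normalized to no-compound control. CellTiter-Glo read-out was taken after 96 hours in HTLV-1-transformed MT-4 cells. Cytotoxicity was measured in parallel under identical conditions.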
In general terms: Cellular ATP, detected with luciferase, serves as a proxy for viable cell number.
For the compound `CCn1c(C(OC(C)(C)C)C(=O)O)c(-c2ccc3c(c2)CCCO3)c2ccccc2c1=O` (stereo not drawn) [Example 65, 2-(tert-butoxy)-2-[4-(3,4-dihydro-2H-1-benzopyran-6-yl)-2-ethyl-1-oxo-1,2-dihydroisoquinolin-3-yl]acetic acid], the IC50 is 1460 nM. The result for `Cc1c(-c2c([C@H](OC(C)(C)C)C(=O)O)n(C)c(=O)c3cc(CN4CCCCC4)ccc23)cc(F)c2c1CCCO2` (atropisomer, axis not shown; (M)) [Example 190, (S)(M)-2-(tert-butoxy)-2-(4-(8-fluoro-5-methylchroman-6-yl)-2-methyl-1-oxo-7-(piperidin-1-ylmethyl)-1,2-dihydroisoquinolin-3-yl)acetic acid, Trifluoroacetic acid salt] reads 320 nM. The result for `Cc1ccc(-c2c(C(OC(C)(C)C)C(=O)O)n(C)c(=O)c3cc(CC(C)C)ccc23)cc1C` (stereo not drawn) [Example 172, [(1,1-dimethylethyl)oxy][4-(3,4-dimethylphenyl)-2-methyl-7-(2-methylpropyl)-1-oxo-1,2-dihydro-3-isoquinolinyl]acetic acid] reads 270 nM. With `Cc1ccc(-c2c(C(OC(C)(C)C)C(=O)O)n(C)c(=O)c3cc(CN)ccc23)cc1C` (stereo not drawn) [Example 179, [7-(aminomethyl)-4-(3,4-dimethylphenyl)-2-methyl-1-oxo-1,2-dihydro-3-isoquinolinyl][(1,1-dimethylethyl)oxy]acetic acid-TFA salt], the IC50 was 50000 nM. Then `Cn1c(C(OC(C)(C)C)C(=O)O)c(-c2ccc3c(c2)OCCCO3)c2ccccc2c1=O` (stereo not drawn) [Example 61, 2-(tert-butoxy)-2-[4-(3,4-dihydro-2H-1,5-benzodioxepin-7-yl)-2-methyl-1-oxo-1,2-dihydroisoquinolin-3-yl]acetic acid], with 8700 nM; and `Cc1occc1-c1c(C(OC(C)(C)C)C(=O)O)n(C)c(=O)c2ccccc12` (stereo not drawn) [Example 155, [(1,1-dimethylethyl)oxy][2-methyl-4-(2-methyl-3-furanyl)-1-oxo-1,2-dihydro-3-isoquinolinyl]acetic], with 13300 nM; and `Cc1ccc(-c2c(C(OC(C)(C)C)C(=O)O)n(C)c(=O)c3cc(CNS(=O)(=O)N(C)C)ccc23)cc1C` (stereo not drawn) [Example 188, 2-(tert-butoxy)-2-(4-(3,4-dimethylphenyl)-7-(((N,N-dimethylsulfamoyl)amino)methyl)-2-methyl-1-oxo-1,2-dihydroisoquinolin-3-yl)acetic acid], with 3700 nM. The result for `Cn1c(C(OC(C)(C)C)C(=O)O)c(-c2cc(Cl)cc(Cl)c2)c2ccccc2c1=O` (stereo not drawn) [Example 12, 2-(tert-butoxy)-2-[4-(3,5-dichlorophenyl)-2-methyl-1-oxo-1,2-dihydroisoquinolin-3-yl]acetic acid] reads 36700 nM; that for `Cc1c(-c2c([C@H](OC(C)(C)C)C(=O)O)n(C)c(=O)c3cc(OCc4ccc(Cl)s4)ccc23)ccc2c1CCCO2` [Example 112, (2S)-2-(tert-butoxy)-2-{7-[(5-chlorothiophen-2-yl)methoxy]-2-methyl-4-(5-methyl-3,4-dihydro-2H-1-benzopyran-6-yl)-1-oxo-1,2-dihydroisoquinolin-3-yl}acetic acid], 50 nM.

Regarding `Cc1ccc(-c2c(C(OC(C)(C)C)C(=O)O)n(C)c(=O)c3ccccc23)c(C)c1` (stereo not drawn) [Example 34, 2-(tert-butoxy)-2-[4-(2,4-dimethylphenyl)-2-methyl-1-oxo-1,2-dihydroisoquinolin-3-yl]acetic acid], the IC50 is 410 nM. `Cc1c(-c2c(C(OC(C)(C)C)C(=O)O)n(C)c(=O)c3cc(F)ccc23)cc(F)c2c1CCCO2` (stereo not drawn) [Example 92, 2-(tert-butoxy)-2-[7-fluoro-4-(8-fluoro-5-methyl-3,4-dihydro-2H-1-benzopyran-6-yl)-2-methyl-1-oxo-1,2-dihydroisoquinolin-3-yl]acetic acid]: the IC50 was determined as 140 nM. The result for `Cc1c(-c2c([C@H](OC(C)(C)C)C(=O)O)n(C)c(=O)c3cc(OCc4ccc(F)cc4F)ccc23)cc(F)c2c1CCCO2` [Example 107, (2S)-2-(tert-butoxy)-2-{7-[(2,4-difluorophenyl)methoxy]-4-(8-fluoro-5-methyl-3,4-dihydro-2H-1-benzopyran-6-yl)-2-methyl-1-oxo-1,2-dihydroisoquinolin-3-yl}acetic acid] reads 20 nM.

Consider `Cc1cc2c(cc1-c1c(C(OC(C)(C)C)C(=O)O)n(C)c(=O)c3ccccc13)CCCO2` (stereo not drawn) [Example 20, 2-(tert-butoxy)-2-[2-methyl-4-(7-methyl-3,4-dihydro-2H-1-benzopyran-6-yl)-1-oxo-1,2-dihydroisoquinolin-3-yl]acetic acid], for which the IC50 came out at 3790 nM. Then `Cc1c(-c2c([C@H](OC(C)(C)C)C(=O)O)n(C)c(=O)c3cc(-c4ccccc4F)ccc23)cc(F)c2c1CCCO2` (atropisomer, axis not shown; (M)) [Example 211, (S)(M)-2-(tert-butoxy)-2-(4-(8-fluoro-5-methylchroman-6-yl)-7-(2-fluorophenyl)-2-methyl-1-oxo-1,2-dihydroisoquinolin-3-yl)acetic acid], with 20 nM. Then `Cn1c(C(OC(C)(C)C)C(=O)O)c(-c2ccc(OC3CCCCC3)cc2)c2ccccc2c1=O` (stereo not drawn) [Example 24, 2-(tert-butoxy)-2-{4-[4-(cyclohexyloxy)phenyl]-2-methyl-1-oxo-1,2-dihydroisoquinolin-3-yl}acetic acid], with 25000 nM. Then `Cc1ccc(-c2c(C(OC(C)(C)C)C(=O)O)n(C)c(=O)c3ccc(F)cc23)cc1C` (stereo not drawn) [Example 56, 2-(tert-butoxy)-2-[4-(3,4-dimethylphenyl)-6-fluoro-2-methyl-1-oxo-1,2-dihydroisoquinolin-3-yl]acetic acid], with 1680 nM. Turning to `Cc1c(-c2c(C(OC(C)(C)C)C(=O)O)n(C)c(=O)c3cc(OCc4ccccc4F)ccc23)ccc2c1CCCO2` (stereo not drawn) [Example 103, 2-(tert-butoxy)-2-{7-[(2-fluorophenyl)methoxy]-2-methyl-4-(5-methyl-3,4-dihydro-2H-1-benzopyran-6-yl)-1-oxo-1,2-dihydroisoquinolin-3-yl}acetic acid], the IC50 stood at 50 nM. Consider `COc1cc(-c2c(C(OC(C)(C)C)C(=O)O)n(C)c(=O)c3ccccc23)ccc1C` (stereo not drawn) [Example 52, 2-(tert-butoxy)-2-[4-(3-methoxy-4-methylphenyl)-2-methyl-1-oxo-1,2-dihydroisoquinolin-3-yl]acetic acid], for which the IC50 is 3120 nM. With `Cc1c(-c2c(C(OC(C)(C)C)C(=O)O)n(C)c(=O)c3cc(OCCF)ccc23)ccc2c1CCCO2` (stereo not drawn) [Example 89, 2-(tert-butoxy)-2-[7-(2-fluoroethoxy)-2-methyl-4-(5-methyl-3,4-dihydro-2H-1-benzopyran-6-yl)-1-oxo-1,2-dihydroisoquinolin-3-yl]acetic acid], the IC50 stood at 400 nM.

On to `Cc1c(-c2c([C@H](OC(C)(C)C)C(=O)O)n(C)c(=O)c3cc(-c4ccoc4)ccc23)cc(F)c2c1CCCO2` (atropisomer, axis not shown; (M)) [Example 194, (2S)(M)-[(1,1-dimethylethyl)oxy][4-(8-fluoro-5-methyl-3,4-dihydro-2H-chromen-6-yl)-7-(3-furanyl)-2-methyl-1-oxo-1,2-dihydro-3-isoquinolinyl]ethanoic acid], for which the IC50 turned out to be 40 nM. Then `Cc1c(-c2c(C(OC(C)(C)C)C(=O)O)n(C)c(=O)c3cc(OCC(=O)O)ccc23)ccc2c1CCCO2` (stereo not drawn) [Example 122, 2-({3-[(tert-butoxy)(carboxy)methyl]-2-methyl-4-(5-methyl-3,4-dihydro-2H-1-benzopyran-6-yl)-1-oxo-1,2-dihydroisoquinolin-7-yl}oxy)acetic acid], with 50000 nM.

For `COc1ccc2c(-c3ccc4c(c3)CCCO4)c(C(OC(C)(C)C)C(=O)O)n(C)c(=O)c2c1` (stereo not drawn) [Example 72, 2-(tert-butoxy)-2-[4-(3,4-dihydro-2H-1-benzopyran-6-yl)-7-methoxy-2-methyl-1-oxo-1,2-dihydroisoquinolin-3-yl]acetic acid], the IC50 was determined as 400 nM.

Take `Cc1c(-c2c([C@H](OC(C)(C)C)C(=O)O)n(C)c(=O)c3cc(OCc4ccccn4)ccc23)cc(F)c2c1CCCO2` [Example 143, (2S)-2-(tert-butoxy)-2-[4-(8-fluoro-5-methyl-3,4-dihydro-2H-1-benzopyran-6-yl)-2-methyl-1-oxo-7-(pyridin-2-ylmethoxy)-1,2-dihydroisoquinolin-3-yl]acetic acid]: the IC50 is 30 nM. As to `Cc1ccc(-c2c(C(OC(C)(C)C)C(=O)O)n(C)c(=O)c3cc(CN(Cc4ccccn4)Cc4ccccn4)ccc23)cc1C` (stereo not drawn) [Example 182, 2-(7-((bis(pyridin-2-ylmethyl)amino)methyl)-4-(3,4-dimethylphenyl)-2-methyl-1-oxo-1,2-dihydroisoquinolin-3-yl)-2-(tert-butoxy)acetic acid], the IC50 was 1380 nM.

Consider `CCNC(=O)NCc1ccc2c(-c3ccc(C)c(C)c3)c(C(OC(C)(C)C)C(=O)O)n(C)c(=O)c2c1` (stereo not drawn) [Example 185, 2-(tert-butoxy)-2-(4-(3,4-dimethylphenyl)-7-((3-ethylureido)methyl)-2-methyl-1-oxo-1,2-dihydroisoquinolin-3-yl)acetic acid], for which the IC50 stood at 37400 nM. The result for `CC1CCOc2ccc(-c3c(C(OC(C)(C)C)C(=O)O)n(C)c(=O)c4ccccc34)cc21` (stereo not drawn) [Example 149, [(1,1-dimethylethyl)oxy][2-methyl-4-(4-methyl-3,4-dihydro-2H-chromen-6-yl)-1-oxo-1,2-dihydro-3-isoquinolinyl]acetic acid] reads 1170 nM; that for `Cc1n[nH]c(C)c1-c1ccc2c(-c3cc(F)c4c(c3C)CCCO4)c([C@H](OC(C)(C)C)C(=O)O)n(C)c(=O)c2c1` (atropisomer, axis not shown; (M)) [Example 196, (2S)(M)-[(1,1-dimethylethyl)oxy][7-(3,5-dimethyl-1H-pyrazol-4-yl)-4-(8-fluoro-5-methyl-3,4-dihydro-2H-chromen-6-yl)-2-methyl-1-oxo-1,2-dihydro-3-isoquinolinyl]ethanoic acid], 1160 nM.

As a reminder, the IC50 is the concentration at which inhibition is half-maximal.
